From US8658604B2, “Template-fixed beta-hairpin peptidomimetics with protease inhibitory activity” (Polyphor Ltd, priority 2005, dated 2014)
Read-outs that look alike come from different tables or passages of the source. Where a SMILES comes first, the peptide text is derived from it.

What was measured:
[1] = biological target: Trypsin, from human pancreas (Homo sapiens, UniProt P07477); assay: Enzymatic assay, trypsin; settings: at 100 μM
Chymase, from human skin = biological target: T1, Chymase, from human skin (Homo sapiens, UniProt P23946); assay: Enzymatic assay, chymase
T1 sequence (P23946 22-247): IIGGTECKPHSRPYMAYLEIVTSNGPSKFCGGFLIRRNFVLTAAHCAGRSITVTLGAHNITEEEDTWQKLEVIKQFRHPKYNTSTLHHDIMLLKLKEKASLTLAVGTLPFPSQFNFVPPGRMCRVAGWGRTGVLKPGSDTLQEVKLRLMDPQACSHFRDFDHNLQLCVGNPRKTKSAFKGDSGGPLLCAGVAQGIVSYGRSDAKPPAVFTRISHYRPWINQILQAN

[2] = biological target: T2, Elastase from human neutrophils (Homo sapiens, UniProt P08246); assay: Enzymatic assay, elastase; settings: Elastase IC50
T2 sequence (P08246 30-267): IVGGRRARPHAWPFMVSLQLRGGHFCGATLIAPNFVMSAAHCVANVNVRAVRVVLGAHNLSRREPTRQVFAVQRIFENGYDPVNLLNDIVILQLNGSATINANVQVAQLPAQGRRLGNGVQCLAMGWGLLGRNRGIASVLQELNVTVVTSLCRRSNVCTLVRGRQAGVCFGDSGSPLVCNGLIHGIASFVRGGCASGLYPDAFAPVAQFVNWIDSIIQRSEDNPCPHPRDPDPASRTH

[3] = biological target: Thrombin, from Human Plasma (Homo sapiens, UniProt P00734); assay: Enzymatic assay, thrombin
[4] = tested on: Tryptase, from human lung; assay: Enzymatic assay, tryptase; settings: at 100 μM
[5] = biological target: Urokinase from human urine (Homo sapiens, UniProt P00749); assay: Enzymatic assay, urokinase
[6] = biological target: T3, CathepsinG, from human neutrophils (Homo sapiens, UniProt P08311); assay: Enzymatic assay, cathepsin G
T3 sequence (P08311 21-244): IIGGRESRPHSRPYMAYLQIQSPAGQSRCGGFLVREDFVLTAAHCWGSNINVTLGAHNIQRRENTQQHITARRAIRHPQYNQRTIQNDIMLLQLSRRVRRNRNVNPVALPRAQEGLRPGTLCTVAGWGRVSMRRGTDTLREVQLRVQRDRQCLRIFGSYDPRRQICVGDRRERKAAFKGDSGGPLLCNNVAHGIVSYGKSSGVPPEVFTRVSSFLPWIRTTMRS

[7] = biological target: Chymotrypsin, from human pancreas (Homo sapiens, UniProt P17538); assay: Enzymatic assay, chymotrypsin; settings: at 100 μM
[8] = biological target: Coagulation Factor Xa, from uman plasma (Homo sapiens, UniProt P00742); assay: Enzymatic assay, coagulation factor Xa
Coagulation Factor Xa, from uman plasma, sequence (P00742 235-488 limits assumed): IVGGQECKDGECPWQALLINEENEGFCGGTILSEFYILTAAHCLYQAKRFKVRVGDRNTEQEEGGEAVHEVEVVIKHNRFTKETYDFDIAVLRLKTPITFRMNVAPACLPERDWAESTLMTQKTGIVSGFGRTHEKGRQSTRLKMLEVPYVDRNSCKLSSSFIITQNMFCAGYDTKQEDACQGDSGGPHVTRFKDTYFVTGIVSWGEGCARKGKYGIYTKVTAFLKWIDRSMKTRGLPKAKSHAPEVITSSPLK
Coagulation Factor Xa, from uman plasma, sequence (P00742 41-179 limits assumed): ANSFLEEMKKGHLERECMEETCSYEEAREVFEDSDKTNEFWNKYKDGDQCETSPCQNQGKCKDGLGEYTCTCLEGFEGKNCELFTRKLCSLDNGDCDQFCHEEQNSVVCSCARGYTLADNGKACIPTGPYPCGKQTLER

Chymotrypsin, from human pancreas, sequence (P17538 19-263): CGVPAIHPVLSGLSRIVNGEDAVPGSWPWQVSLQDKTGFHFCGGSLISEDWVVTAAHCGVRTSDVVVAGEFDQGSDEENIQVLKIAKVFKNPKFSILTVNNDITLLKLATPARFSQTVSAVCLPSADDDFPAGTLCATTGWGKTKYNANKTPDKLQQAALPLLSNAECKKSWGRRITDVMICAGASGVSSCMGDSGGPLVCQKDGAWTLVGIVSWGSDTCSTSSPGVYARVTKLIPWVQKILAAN

SMILES	Trypsin at 100 μM % [1] [%]	Chymase at 100 μM % (Chymase, from human skin) [%]	IC50 [2] [nM]	Thrombin at 100 μM % [3] [%]	Tryptase At 100 μM % [4] [%]	Urokinase at 100 μM % [5] [%]	Cathepsin G at 100 μM % ([6]; at 100 μM) [at 100%]	Chymotrypsin at 100 μM % [7]	FXa at 100 μM % [8] [%]	Tryptase at 100 μM % [4] [%]	IC50 ([6]; Cathepsin G IC50) [nM]	IC50 ([6]; read-out: Cathepsin G IC50) [nM]	Cathepsin G at 100 μM % ([6]; at 100 μM (stated in cell instead of IC50)) [at 100%]
C[C@@H]1NC(=O)[C@H]([C@@H](C)O)NC(=O)[C@@H]2CSSC[C@H](NC(=O)[C@H](CCC(N)=O)NC(=O)[C@@H]3CCCN3C(=O)[C@@H]3CCCN3C(=O)[C@H](CC3CCCCC3)NC(=O)[C@H](CO)NC1=O)C(=O)N[C@@H](Cc1ccccc1)C(=O)N1CCC[C@@H]1C(=O)N1CCC[C@H]1C(=O)N[C@@H](CCc1ccccc1)C(=O)N2 [Ex. 155] (HELM PEPTIDE1{[O=C([C@H](CCc1ccccc1)N[*:1])[*:2]].C.T.A.S.[Cha].P.P.Q.C.F.[dP].P}$PEPTIDE1,PEPTIDE1,2:R3-10:R3|PEPTIDE1,PEPTIDE1,1:R1-13:R2$$$V2.0)	18	3	8.2	19	30	12	52	83%	9				
CC[C@H](C)[C@@H]1NC(=O)[C@@H]2CCCN2C(=O)[C@@H]2CCCN2C(=O)[C@H](CC(=O)O)NC(=O)[C@H](CO)NC(=O)[C@H](CCCCN)NC(=O)[C@H]([C@@H](C)O)NC(=O)[C@@H]2CSSC[C@H](NC1=O)C(=O)N[C@@H](Cc1ccc(O)cc1)C(=O)N1CCC[C@@H]1C(=O)N1CCC[C@H]1C(=O)N[C@@H](Cc1ccc(O)cc1)C(=O)N2 [Ex. 26] (HELM PEPTIDE1{Y.C.T.K.S.D.P.P.I.C.Y.[dP].P}$PEPTIDE1,PEPTIDE1,2:R3-10:R3|PEPTIDE1,PEPTIDE1,1:R1-13:R2$$$V2.0)	84	0	> 100000	3		3.1		2.2%	6	66.4	49		
CCCC[C@@H]1NC(=O)[C@@H]2CCCN2C(=O)[C@H]2CCCN2C(=O)[C@H](Cc2ccccc2Cl)NC(=O)[C@@H]2CSSC[C@H](NC1=O)C(=O)N[C@@H]([C@@H](C)O)C(=O)N[C@@H](C)C(=O)N[C@@H](CO)C(=O)N[C@@H]([C@@H](C)CC)C(=O)N1CCC[C@H]1C(=O)N1CCC[C@H]1C(=O)N[C@@H](CCC(N)=O)C(=O)N2 [Ex. 144] (HELM PEPTIDE1{[Nle].C.T.A.S.I.P.P.Q.C.[O=C([C@H](Cc1ccccc1Cl)N[*:1])[*:2]].[dP].P}$PEPTIDE1,PEPTIDE1,2:R3-10:R3|PEPTIDE1,PEPTIDE1,1:R1-13:R2$$$V2.0)	7.5	0	7.5	3.6	0	6.2		80.6%	0			21200	
CC[C@H](C)[C@@H]1NC(=O)[C@@H]2CCCN2C(=O)[C@@H]2CCCN2C(=O)[C@H](CC(=O)O)NC(=O)[C@H](CO)NC(=O)[C@H](CCCCN)NC(=O)[C@H]([C@@H](C)O)NC(=O)[C@@H]2CSSC[C@H](NC1=O)C(=O)N[C@@H](CO)C(=O)N[C@H](C)C(=O)N[C@@H](CC(=O)O)C(=O)N[C@@H](Cc1ccccc1)C(=O)N2 [Ex. 68] (HELM PEPTIDE1{F.C.T.K.S.D.P.P.I.C.S.[dA].D}$PEPTIDE1,PEPTIDE1,2:R3-10:R3|PEPTIDE1,PEPTIDE1,1:R1-13:R2$$$V2.0)	84.2	0	> 100000	5.4		4.6		4.3%	8.6	21.3	59		
CC[C@H](C)[C@@H]1NC(=O)[C@@H]2CCCN2C(=O)[C@@H]2CCCN2C(=O)[C@H](CC(=O)O)NC(=O)[C@H](CO)NC(=O)[C@H](CCCCN)NC(=O)[C@H]([C@@H](C)O)NC(=O)[C@@H]2CSSC[C@H](NC1=O)C(=O)N[C@@H](CC(N)=O)C(=O)N1CCC[C@@H]1C(=O)N1CCC[C@H]1C(=O)N[C@@H](Cc1ccc(N)cc1)C(=O)N2 [Ex. 31] (HELM PEPTIDE1{[Nc1ccc(C[C@H](N[*:1])C(=O)[*:2])cc1].C.T.K.S.D.P.P.I.C.N.[dP].P}$PEPTIDE1,PEPTIDE1,2:R3-10:R3|PEPTIDE1,PEPTIDE1,1:R1-13:R2$$$V2.0)	98	12	> 100000	10		15		15%	8	76	34		
CCCC[C@@H]1NC(=O)[C@@H]2CCCN2C(=O)[C@H]2CCCN2C(=O)[C@H](Cc2ccc(O)cc2)NC(=O)[C@H](CCCCN)NC(=O)[C@H](CCC(N)=O)NC(=O)[C@@H]2CCCN2C(=O)[C@@H]2CCCN2C(=O)[C@H]([C@@H](C)CC)NC(=O)[C@H](CO)NC(=O)[C@H](C)NC(=O)[C@H]([C@@H](C)O)NC(=O)[C@H](CCC(=O)O)NC1=O [Ex. 104] (HELM PEPTIDE1{[Nle].E.T.A.S.I.P.P.Q.K.Y.[dP].P}$PEPTIDE1,PEPTIDE1,1:R1-13:R2$$$V2.0)	0	0	34	7.7		0		3.1 at 100 μM %	6.2	0			53.5
CCCCCCCC[C@@H]1NC(=O)[C@@H]2CCCN2C(=O)[C@H]2CCCN2C(=O)[C@H](CCC(N)=O)NC(=O)[C@@H]2CSSC[C@H](NC1=O)C(=O)N[C@@H]([C@@H](C)O)C(=O)N[C@@H](C)C(=O)N[C@@H](CO)C(=O)N[C@@H](CC1CCCCC1)C(=O)N1CCC[C@H]1C(=O)N1CC(NC(=O)c3ccccc3)C[C@H]1C(=O)N[C@@H](CCC(N)=O)C(=O)N2 (stereo partly drawn) [Ex. 160] (HELM PEPTIDE1{[CCCCCCCC[C@H](N[*:1])C(=O)[*:2]].C.T.A.S.[Cha].P.[O=C(NC1C[C@@H](C(=O)[*:2])N([*:1])C1)c1ccccc1].Q.C.Q.[dP].P}$PEPTIDE1,PEPTIDE1,2:R3-10:R3|PEPTIDE1,PEPTIDE1,1:R1-13:R2$$$V2.0)	3	2		23	30	14	55	94%	1				
CCCC[C@@H]1NC(=O)[C@H](CCC(N)=O)NC(=O)[C@@H](CCC(N)=O)NC(=O)[C@H](CCC(N)=O)NC(=O)[C@@H]2CSSC[C@H](NC1=O)C(=O)N[C@@H]([C@@H](C)O)C(=O)N[C@@H](C)C(=O)N[C@@H](CO)C(=O)N[C@@H](CC1CCCCC1)C(=O)N1CCC[C@H]1C(=O)N1CC(NC(=O)c3ccccc3)C[C@H]1C(=O)N[C@@H](CCC(N)=O)C(=O)N2 (stereo partly drawn) [compound 176] (HELM PEPTIDE1{[Nle].C.T.A.S.[Cha].P.[O=C(NC1C[C@@H](C(=O)[*:2])N([*:1])C1)c1ccccc1].Q.C.Q.[dQ].Q}$PEPTIDE1,PEPTIDE1,2:R3-10:R3|PEPTIDE1,PEPTIDE1,1:R1-13:R2$$$V2.0)	7	2		15	17	8	69	55%	1				
CC[C@H](C)[C@@H]1NC(=O)[C@@H]2CCCN2C(=O)[C@@H]2CCCN2C(=O)[C@H](CC(=O)O)NC(=O)[C@H](CO)NC(=O)[C@H](CCCCN)NC(=O)[C@H]([C@@H](C)O)NC(=O)[C@@H]2CSSC[C@H](NC1=O)C(=O)N[C@@H](Cc1ccc(O)cc1)C(=O)N1CCC[C@@H]1C(=O)N1CCC[C@H]1C(=O)N[C@@H](CCc1ccccc1)C(=O)N2 [Ex. 30] (HELM PEPTIDE1{[O=C([C@H](CCc1ccccc1)N[*:1])[*:2]].C.T.K.S.D.P.P.I.C.Y.[dP].P}$PEPTIDE1,PEPTIDE1,2:R3-10:R3|PEPTIDE1,PEPTIDE1,1:R1-13:R2$$$V2.0)	98	0	49900	2		9		49%	3		39		
